Measurements published in patent US20070014721A1, “Hydrazide conjugates as imaging agents” (priority 2005, published 2007).

Legend:
[1] = tested on: Rabbit plaque aorta or normal rabbit aorta; experiment: Ex vivo blood vessel binding assay; design: species or system New Zealand white rabbits; conditions: radiolabeled compound incubated with rabbit aorta (0.5 cm) in phosphate buffered saline for 2 hours at 37° C; bound compound as percentage of the incubated compound
Description: Normal aorta was obtained from New Zealand white rabbits. Aorta bearing atherosclerotic plaque was obtained from New Zealand white rabbits balloon stripped along the abdominal aorta and placed on a high fat diet (0.5% cholesterol) for 16-22 weeks. Vascular injury was produced with a 3-F Fogarty catheter along the abdominal aorta and left iliofemoral artery. This procedure generates an accelerated complex lesion development with a lipid rich core covered by a fibrous cap in rabbits. Rabbit plaque aorta or normal rabbit aorta (0.5 cm) was incubated with 10 nCi of ^14C labeled compound or 1.5 μCi of ^99m Tc labeled compound or 0.135 μCi of ^111In labeled compound or 0.135 μCi of ^68Ga labeled compound or 0.135 µCi of ^153Gd labeled compound diluted in phosphate buffered saline (450 μL) for 2 hours at 37° C. The supernatant from this sample was collected and analyzed by HPLC to determine compound stability in presence of blood vessels. The blood vessel tissue was then washed with phosphate buffered saline (3×10 mL). Phosphate buffered saline (10 ml) was added to the tissue and incubated at 37° C. for 1 hour. The tissue was then washed with phosphate buffered saline (3×10 mL). The washed tissue was oxidized in a tissue oxidizer for C-14 labeled compounds. The counts in the oxidized tissue were determined on a beta counter. Blood vessels incubated with ^99m Tc labeled compound or ^111In labeled compound or ^68Ga labeled compound or ^153Gd labeled compound were counted on a gamma counter. The amount of compound bound to the tissue was determined as a percentage of the incubated compound. This was calculated using the following formula: [formula]

[2] = tested on: aorta of atherosclerotic rabbit model; experiment: In vivo rabbit aorta uptake study, atherosclerotic (plaque) rabbit; conditions: 60 minutes postinjection; for Aorta/Blood (Plaque Rabbit): calculated from the % ID/g data; for Aorta Uptake, % ID/g (Plaque Rabbit): marginal ear vein bolus
Procedure: Atherosclerosis was induced in New Zealand White male rabbits (3 kg) with aortic balloon endothelial injury followed by feeding a 0.5% cholesterol diet for 22 weeks. Test compounds were radiolabeled(^14C, ^99mTc, or ^111In as described above) and administered at 0.02-1.0 mCi/kg to anesthetized rabbits in a single, bolus injection vis the marginal ear vein. Blood samples were collected from the central ear artery at 0, 2, 5, 7, 10, 15, 30, and 60 minutes post injection. Rabbits were euthanized at 60 minutes post injection for tissue harvesting (blood, muscle, bile, urine, kidney, liver, spleen, heart, lung, colon, small intestine, stomach, testes). Abdominal aorta (upper, middle, and lower) and left and right femoral arteries were collected. Both plaque bearing and non-plaque bearing rabbits were administered compounds to compare aorta uptake. All samples were weighed and assayed for radioactivity. Tissue uptake is expressed as percent of injected dose per gram of tissue (% ID/g). The aorta to blood ratios were calculated from the % ID/g data.

[3] = tested on: aorta of apolipoprotein E (apoE) knockout mouse; experiment: In vivo ApoE mouse aorta uptake study; conditions: 60 min postinjection; for Aorta (% ID/g): ApoE mouse on high-fat diet 37-41 weeks, tail vein bolus; for Aorta/Blood Ratio: ApoE mouse, calculated from the % ID/g data
Procedure: Mice were fed a high-fat diet to accelerate plaque formation and compounds were tested in the mice between 37-41 weeks on diet. Test compounds were radiolabeled (^14C, ^99mTc, or ^111In as described above) and administered at 0.02-4.0 mCi/kg to anesthetized mice in a single, bolus injection via the tail vein. Blood samples were collected via the tail between 0-30 minutes postinjection for pharmacokinetic analysis and mice were euthanized by CO2 at 60 minutes for tissue harvesting. The aorta were flushed with saline through the left ventricle exiting via the femoral vein. The aorta were then removed from the heart to the renal bifurcation and additional tissue samples collected (blood, muscle, liver, kidney, heart, lung, spleen and innominate artery). All samples were weighed and assayed for radioactivity. Tissue uptake is expressed as percent of injected dose per gram of tissue (% ID/g). The aorta to blood ratios were calculated from the % ID/g data.

[4] = tested on: aorta of normal (non-plaque bearing) rabbit; experiment: In vivo rabbit aorta uptake study, normal rabbit; design: species or system New Zealand White male rabbits; conditions: 60 minutes postinjection; for Aorta/Blood (Normal Rabbit): calculated from the % ID/g data; for Aorta Uptake, % ID/g (Normal Rabbit): marginal ear vein bolus
Description: All samples were weighed and assayed for radioactivity.

Aminopeptidase N = Aminopeptidase N (Homo sapiens, UniProt P15144); experiment: Aminopeptidase N cleavage of test substrates; type: biochemical; conditions: Boc removed from N-terminus before assay; 0.5 mM test substrate, 0.02 U APN, 37° C, 25 minutes
Chain of Aminopeptidase N (P15144 whole entry, species assumed): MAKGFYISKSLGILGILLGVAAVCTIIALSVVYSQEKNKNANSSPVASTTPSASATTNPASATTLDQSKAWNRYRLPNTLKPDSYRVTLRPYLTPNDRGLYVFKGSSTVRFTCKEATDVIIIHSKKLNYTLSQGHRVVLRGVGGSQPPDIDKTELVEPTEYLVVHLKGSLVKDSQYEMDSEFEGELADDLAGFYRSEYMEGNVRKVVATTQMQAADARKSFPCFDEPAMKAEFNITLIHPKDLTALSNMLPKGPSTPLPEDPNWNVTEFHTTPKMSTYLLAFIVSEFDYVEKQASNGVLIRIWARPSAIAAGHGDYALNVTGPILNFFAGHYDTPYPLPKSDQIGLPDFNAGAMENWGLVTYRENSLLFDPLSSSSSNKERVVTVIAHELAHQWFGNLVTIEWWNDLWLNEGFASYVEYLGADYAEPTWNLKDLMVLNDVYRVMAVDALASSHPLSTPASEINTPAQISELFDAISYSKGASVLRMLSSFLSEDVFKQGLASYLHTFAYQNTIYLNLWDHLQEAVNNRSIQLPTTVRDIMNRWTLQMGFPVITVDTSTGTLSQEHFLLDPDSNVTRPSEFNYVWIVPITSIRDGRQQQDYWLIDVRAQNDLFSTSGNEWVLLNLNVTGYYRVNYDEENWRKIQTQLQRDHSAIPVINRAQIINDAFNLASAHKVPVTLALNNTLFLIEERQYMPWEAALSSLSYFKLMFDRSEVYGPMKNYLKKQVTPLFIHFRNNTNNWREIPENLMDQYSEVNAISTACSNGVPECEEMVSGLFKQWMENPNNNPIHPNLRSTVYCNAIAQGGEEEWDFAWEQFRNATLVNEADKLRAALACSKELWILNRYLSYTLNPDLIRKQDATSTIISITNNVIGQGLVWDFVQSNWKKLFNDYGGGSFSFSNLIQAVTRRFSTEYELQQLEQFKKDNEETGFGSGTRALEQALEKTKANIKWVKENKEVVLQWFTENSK
Procedure: The test compounds were dissolved in 50:50 TFA:dichloromethane and allowed to stand at ambient temperature under nitrogen for 10 minutes to remove the Boc protecting group from the N-terminus amino acid. The solutions were concentrated and the resulting oily residue was dissolved in 50:50 acetonitrile:water and lyophilized. The resulting flocculent solids were used directly in the APN assay.
Aminopeptidase N cleaves amino acids at the N-terminus of proteins and peptides attached to another amino acid. A stock solution of test substrates was prepared in 100% DMSO at a concentration of 8 mM. The stock solution (4.7 μL) was added to buffer (50 mM Hepes/pH 7.5, 10 mM CaCl2, 0.1% Brij) for a final concentration of 0.5 mM test substrate in the reaction. To this reaction solution 0.02 U of the enzyme (APN) was added, the solution was mixed, and immediately 30 μL of the mix was transferred to HPLC vials containing acetic acid (15 μL) for t=0 minutes measurement. The rest of the mix in the test tube was incubated at 37° C. for 25 minutes. At the 25 minutes time point 30 μL of the mix was transferred to an HPLC vial containing acetic acid (15 μl) for the t=25 minute measurement. The test substrates and products were separated by reversed phase HPLC on a Zorbax SB-C18 column (4.6×150 mm, 5 micron) using a water:acetonitrile gradient containing 0.1% TFA at a flow rate of 1.0 mL/min and with UV detection. The peak areas were integrated and the substrate peak area was used to determine rate constant k in the following equation: K={(% hydrolyzed/100)*[S]}/[E]*[time] where S=test substrate concentration in μmoles
E=aminopeptidase N concentration in units/ml
K=μmoles of substrate hydrolyzed/minute/unit enzyme

| Molecule | Tissue Binding % [1] [%] | Aorta/Blood (Plaque Rabbit) [2] | Aorta Uptake, % ID/g (Plaque Rabbit) [2] [% ID/g] | Aorta (% ID/g) [3] [% ID/g] | Aorta/Blood Ratio [3] | Aorta/Blood (Normal Rabbit) [4] | Aorta Uptake, % ID/g (Normal Rabbit) [4] [% ID/g] | Rate of APN Hydrolysis of Test Substrates (Aminopeptidase N) [μmoles/minute/U] |
| --- | --- | --- | --- | --- | --- | --- | --- | --- |
| H-d-Leu-Ahxh-Apa-DOTA [Example 215] | 11.54 | 1.31 | 0.092 | – | – | – | – | – |
| H-d-Leu-Apah-DTPA [Example 159] | 10.10 | 4.08 | 0.083 | 9.5 | 3.0 | – | – | – |
| H-d-1-Nal-Ambh-DTPA [Example 183] | 24.41 | – | – | 15.7 | 11.7 | 4.72 | 0.146 | – |
| Boc-d-Leu-Inph-H [Example 139] | 18.36 | 2.92 | 0.096 | 17.2 | 5.0 | – | – | – |
| CC(C)C[C@H](NC(=O)OC(C)(C)C)C(=O)Nc1ccc(COC(=O)N[C@H](CC(C)C)C(=O)NNC(=O)CCCCCN)cc1.O=C(O)C(F)(F)F [Example 13, N-((2R)-2-{[(4-{(2S)-2-[(tert-Butoxy)carbonylamino]-4-methylpentanoylamino}phenyl)methoxy]carbonylamino}-4-methylpentanoylamino)-6-aminohexanamide, Trifluoroacetic Acid Salt] | – | – | – | – | – | – | – | 0.33 |
| H-d-Hphe-Ambh-DTPA [Example 203] | 17.96 | 2.76 | 0.127 | 12.9 | 8.7 | 4.78 | 0.129 | – |
| Boc-d-Leu-Ahxh-H [Example 120] | 14.09 | 3.98 | 0.088 | 8.9 | 2.2 | – | – | – |
| H-d-Trp-Ambh-DTPA [Example 208] | 14.91 | – | – | 14.8 | 8.7 | 5.58 | 0.135 | – |
| H-d-Leu-Ahxh-DOTA [Example 155] | 3.49 | 1.67 | 0.080 | 5.1 | 2.0 | 2.21 | 0.065 | – |
| CC(C)C[C@H](NC(=O)OC(C)(C)C)C(=O)N[C@H](CC(C)C)C(=O)NNC(=O)CCCCCN.O=C(O)C(F)(F)F [Example 80, N-((2R)-2-{(2S)-2-[(tert-Butoxy)carbonylamino]-4-methylpentanoylamino}-4-methylpentanoylamino)-6-aminohexanamide, Trifluoroacetic Acid Salt] | – | – | – | – | – | – | – | 0.00 |
| H-d-Leu-Apph-DTPA [Example 171] | 16.56 | 2.89 | 0.168 | 6.7 | 8.8 | 4.49 | 0.143 | – |
| H-d-Phe-Apph-DTPA [Example 174] | 17.15 | – | – | 8.7 | 11.0 | 5.42 | 0.111 | – |
| Boc-d-Leu-NHNH2 [Example 122] | 13.99 | – | – | 4.0 | 3.0 | – | – | – |
| H-d-Phe-Apah-DTPA [Example 164] | 13.88 | 3.56 | 0.085 | 8.2 | 7.5 | – | – | – |
| Boc-d-Leu-N(Me)-NH-Ahx-NH2 [Example 126] | 2.97 | – | – | 1.3 | 0.6 | – | – | – |
| H-d-Phe-Apph-Ahx-DTPA [Example 182] | 12.02 | – | – | 11.0 | 4.5 | – | – | – |
| H-d-Cys(Bzl)-Ahxh-DTPA [Example 167] | 9.74 | – | – | 8.0 | 4.9 | – | – | – |
| H-d-Leu-Apah-Ahx-DTPA [Example 176] | 25.21 | – | – | 12.2 | 13.3 | 4.95 | 0.123 | – |
| H-d-Phe(F5)-Ambh-DTPA [Example 204] | 16.11 | – | – | 6.7 | 5.3 | – | – | – |
| H-d-Bip-NHNH-DTPA [Example 162] | 6.39 | – | – | 7.1 | 4.7 | – | – | – |
| H-cLeu-Ambh-DTPA [Example 195] | 9.52 | – | – | 4.6 | 1.9 | – | – | – |
| Boc-d-Aphe(ε-Leu(Boc))-Ahxh-H [Example 151] | 26.92 | – | – | 9.0 | 2.9 | – | – | – |
| H-d-Val-Ahxh-DTPA [Example 191] | 3.02 | – | – | 5.3 | 1.5 | – | – | – |
| H-d-Hphe-Apph-DTPA [Example 180] | 18.24 | – | – | 8.3 | 13.2 | – | – | – |
| H-d-Leu-XInph-DTPA [Example 201] | 2.94 | – | – | 4.3 | 2.1 | – | – | – |
| H-d-Stya-Ambh-DTPA [Example 187] | 13.66 | – | – | 6.1 | 5.4 | – | – | – |
| H-d-Aphe-Ahxh-DTPA [Example 193] | 8.69 | – | – | 6.2 | 3.0 | – | – | – |
